Assay results from patent US10364238B2, “N-((het) arylmethyl)-heteroaryl-carboxamides compounds as plasma kallikrein inhibitors” (KALVISTA PHARMACEUTICALS LIMITED, priority 2014, dated 2019).

What was measured:
diabetic rats = conditions: cited from earlier work
[1] = in vivo; cited from earlier work
Human plasma kallikrein = Human plasma kallikrein (Homo sapiens (Human), UniProt P03952); experiment: Determination of the IC50 for plasma kallikrein; format: biochemical; conditions: 25° C., fluorogenic substrate H-DPro-Phe-Arg-AFC; read-out: IC50 (human PKaI)
Experimental: Determination of the IC50 for Plasma Kallikrein
(§1) Human plasma kallikrein (Protogen) was incubated at 25° C. with the fluorogenic substrate H-DPro-Phe-Arg-AFC and various concentrations of the test compound. Residual enzyme activity (initial rate of reaction) was determined by measuring the change in […] at 410 nm and the IC50 value for the test compound was determined.

Human KLK1 = Human KLK1 (Homo sapiens (Human), UniProt P06870); experiment: Determination of the IC50 for KLK1; format: biochemical; conditions: 25° C., fluorogenic substrate H-DVal-Leu-Arg-AFC
Experimental: Determination of the IC50 for KLK1
as §1, with “KLK1 (Callbiochem)” for “plasma kallikrein (Protogen)”, “H-DVal-Leu-Arg-AFC” for “H-DPro-Phe-Arg-AFC”

Human FXIa = Human FXIa (Homo sapiens (Human), UniProt P03951); experiment: Determination of the % inhibition for FXIa; format: biochemical; conditions: 40 μM test compound, 25° C., substrate Z-Gly-Pro-Arg-AFC
Experimental: Determination of the % Inhibition for FXIa
Human FXIa (Enzyme Research Laboratories) was incubated at 25° C. with the fluorogenic substrate Z-Gly-Pro-Arg-AFC and 40 μM of the test compound. Residual enzyme activity (initial rate of reaction) was determined by measuring the change in […].

[2] = Pharmacokinetics following a single oral dose in rats; format: in vivo; conditions: rat, nominal 10 mg/kg, male Sprague-Dawley rats, plasma
Experimental: Pharmacokinetic studies of the compounds in Table 15 were performed to assess the pharmacokinetics following a single oral dose in male Sprague-Dawley rats. Two rats were given a single po dose of 5 mL/kg of a nominal 2 mg/mL (10 mg/kg) composition of test compound in vehicle. Following dosing, blood samples were collected over a period of 24 hours. Sample times were 5, 15 and 30 minutes then 1, 2, 4, 6, 8 and 12 hours. Following collection, blood samples were centrifuged and the plasma fraction analysed for concentration of test compound by LCMS.

Chain of Human FXIa (P03951 388-625): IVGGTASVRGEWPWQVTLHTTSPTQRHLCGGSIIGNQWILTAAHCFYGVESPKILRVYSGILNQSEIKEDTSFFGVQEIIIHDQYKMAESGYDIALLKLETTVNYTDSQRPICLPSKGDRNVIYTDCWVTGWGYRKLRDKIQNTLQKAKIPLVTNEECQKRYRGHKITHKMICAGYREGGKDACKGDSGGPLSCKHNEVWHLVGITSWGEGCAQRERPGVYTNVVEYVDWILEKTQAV
Chain of Human FXIa (P03951 19-387 partner): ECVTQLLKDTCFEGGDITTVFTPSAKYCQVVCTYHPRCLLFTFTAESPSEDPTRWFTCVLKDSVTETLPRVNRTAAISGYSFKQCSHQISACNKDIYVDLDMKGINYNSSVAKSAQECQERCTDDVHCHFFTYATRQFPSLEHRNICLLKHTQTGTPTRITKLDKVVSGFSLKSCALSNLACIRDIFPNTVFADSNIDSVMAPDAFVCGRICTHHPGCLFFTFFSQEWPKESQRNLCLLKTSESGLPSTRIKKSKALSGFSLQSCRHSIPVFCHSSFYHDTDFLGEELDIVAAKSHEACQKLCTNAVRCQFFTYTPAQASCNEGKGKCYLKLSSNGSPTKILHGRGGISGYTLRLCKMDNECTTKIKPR
Chain of Human KLK1 (P06870 25-262): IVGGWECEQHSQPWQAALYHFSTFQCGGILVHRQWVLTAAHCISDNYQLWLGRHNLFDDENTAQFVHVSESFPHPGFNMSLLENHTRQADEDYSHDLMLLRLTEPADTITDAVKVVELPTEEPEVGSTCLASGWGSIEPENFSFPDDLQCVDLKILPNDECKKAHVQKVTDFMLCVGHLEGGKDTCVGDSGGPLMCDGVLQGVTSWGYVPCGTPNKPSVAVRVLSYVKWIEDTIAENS
Chain of Human plasma kallikrein (P03952 391-638): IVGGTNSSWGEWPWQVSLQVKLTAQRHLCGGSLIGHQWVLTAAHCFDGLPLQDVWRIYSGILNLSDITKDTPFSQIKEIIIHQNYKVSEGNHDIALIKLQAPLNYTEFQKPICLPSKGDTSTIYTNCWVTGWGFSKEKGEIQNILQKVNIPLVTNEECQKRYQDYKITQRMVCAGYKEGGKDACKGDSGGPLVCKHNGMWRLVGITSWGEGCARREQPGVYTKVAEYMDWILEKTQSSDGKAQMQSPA
Chain of Human plasma kallikrein (P03952 20-390 partner): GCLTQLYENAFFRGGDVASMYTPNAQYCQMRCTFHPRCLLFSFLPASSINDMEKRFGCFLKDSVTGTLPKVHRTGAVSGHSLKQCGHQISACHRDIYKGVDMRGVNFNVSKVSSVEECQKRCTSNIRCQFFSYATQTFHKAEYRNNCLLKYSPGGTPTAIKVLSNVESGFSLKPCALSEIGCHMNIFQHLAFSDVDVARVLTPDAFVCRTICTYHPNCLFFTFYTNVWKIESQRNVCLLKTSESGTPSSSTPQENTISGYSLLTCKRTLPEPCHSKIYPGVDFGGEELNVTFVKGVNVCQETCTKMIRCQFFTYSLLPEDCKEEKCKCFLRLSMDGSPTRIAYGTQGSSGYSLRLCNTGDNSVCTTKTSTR

IC50 (Human KLK1) [nM] | inhibition at 40 µM (Human FXIa) [%] | Compound | effect on retinal vascular permeability and retinal blood flow abnormalities (diabetic rats) | oral availability [1] | IC50 (Human plasma kallikrein) [nM] | Cmax [2] [ng/mL] | Tmax [2] [min]
 |  | N=C(N)c1ccc(CNC(=O)c2cnn(Cc3ccccc3)c2)cc1 [ASP-440] | ameliorated both retinal vascular permeability and retinal blood flow abnormalities | poor oral availability |  |  | 
> 10000 | 8 | COc1cccc(CNC(=O)c2cn(Cc3ccc(Cn4ccccc4=O)cc3)nc2N)c1F [Example 2, 3-Amino-1-[4-(2-oxo-2H-pyridin-1-ylmethyl)-benzyl]-1H-pyrazole-4-carboxylic acid 2-fluoro-3-methoxy-benzylamide] |  |  | 8.7 | 351 | 60
> 40000 | 0 | COCc1nn(Cc2ccc(Cn3ccccc3=O)cc2)cc1C(=O)NCc1nccc(OC)c1F [Example 41, N-[(3-fluoro-4-methoxypyridin-2-yl)methyl]-3-(methoxymethyl)-1-({4-[(2-oxopyridin-1-yl)methyl]phenyl}methyl)pyrazole-4-carboxamide] |  |  |  | 1530 | 180
> 40000 |  | O=C(NCc1c(F)cccc1C(F)(F)F)c1cn(Cc2ccc(Cn3ccccc3=O)cc2)nc1C(F)(F)F [Example 51, N-{[2-fluoro-6-(trifluoromethyl)phenyl]methyl}-1-({4-[(2-oxopyridin-1-yl)methyl]phenyl}methyl)-3-(trifluoromethyl)pyrazole-4-carboxamide] |  |  | 48.9 | 101 | 15
> 40000 | 9 | Nc1nn(Cc2ccc(Cn3ccccc3=O)cc2)cc1C(=O)NCC1CNc2ccc(Cl)cc2O1 (stereo not shown) [Example 140, 3-amino-N-[(7-chloro-3,4-dihydro-2H-1,4-benzoxazin-2-yl)methyl]-1-({4-[(2-oxopyridin-1-yl)methyl]phenyl}methyl)pyrazole-4-carboxamide] |  |  | 10.6 |  | 

Compound | IC50 (Human KLK1) [nM] | inhibition at 40 µM (Human FXIa) [%] | effect on retinal vascular permeability and retinal blood flow abnormalities (diabetic rats) | oral availability [1] | IC50 (Human plasma kallikrein) [nM] | Cmax [2] [ng/mL] | Tmax [2] [min]
COCc1nn(Cc2ccc(Cn3ccccc3=O)cc2)cc1C(=O)NCc1cccc(OC)c1F [Example 53, N-[(2-fluoro-3-methoxyphenyl)methyl]-3-(methoxymethyl)-1-({4-[(2-oxopyridin-1-yl)methyl]phenyl}methyl)pyrazole-4-carboxamide] | > 10000 |  |  |  | 20.2 | 1030 | 15
COCc1nn(Cc2ccc(Cn3ccccc3=O)cc2)cc1C(=O)NCc1c(F)ccc(OC)c1F [Example 66, N-[(2,6-difluoro-3-methoxyphenyl)methyl]-3-(methoxymethyl)-1-({4-[(2-oxopyridin-1-yl)methyl]phenyl}methyl)pyrazole-4-carboxamide] | > 10000 | 4 |  |  | 4.6 | 2890 | 60
COCc1nn(Cc2ccc(Cn3ccccc3=O)cc2)cc1C(=O)NCc1c(C#N)ccc(OC)c1F [Example 77, N-[(6-cyano-2-fluoro-3-methoxyphenyl)methyl]-3-(methoxymethyl)-1-({4-[(2-oxopyridin-1-yl)methyl]phenyl}methyl)pyrazole-4-carboxamide] |  | 28 |  |  | 0.6 | 397 | 30
